In US20100216699A1, “SEMI-SYNTHETIC GLYCOPEPTIDES HAVING ANTIBACTERIAL ACTIVITY” (LEAD THERAPEUTICS, INC., priority 2009, published 2010):
≈ marks a conversion by molar mass, not a printed value. Read-outs that look alike come from different tables or passages of the source. Each block holds one compound with its values, some of them ahead of it.

Tests used:
Assay type in all cases: cell-based
[1] = system: Staphylococcus aureus 2012 (VISA); test: MIC by broth microdilution, SA 2012; details: read-out: MIC SA 2012
Text: (§1) As used herein, the term “minimum inhibitory concentration” (MIC) refers to the lowest concentration of an antibiotic that is needed to inhibit growth of a bacterial isolate in vitro. A common method for determining the MIC of an antibiotic is to prepare several tubes containing serial dilutions of the antibiotic, that are then inoculated with the bacterial isolate of interest.
(§2) Antibacterial activity in vitro is investigated by broth microdilution method in Meuller-Hinton broth as recommended by NCCLS. All strains tested are clinical isolates either sensitive or resistant to natural glycopeptides. MIC values were determined using the CLSI-recommended broth microdilution procedure (Clinical and Laboratoratory Standards Institute, Methods for Dilution Antimicrobial Susceptibility Tests for Bacteria That Grow Aerobically; Approved Standard-Seventh Edition.). Automated liquid handlers (Multidrop 384, Labsystems, Helsinki, Finland; Biomek 2000 and Multimek 96, Beckman Coulter, Fullerton Calif.) were used to conduct serial dilutions and liquid transfers.

[2] = system: Streptococcus pyogenes 712 (penicillin sensitive); test: MIC by broth microdilution, SPYO 712; details: read-out: MIC SPYO 712
Text: as §1, §2

[3] = system: Enterococcus faecalis 101 (vancomycin sensitive); test: MIC by broth microdilution, EFC 101; details: read-out: MIC EFC 101
Text: as §1, §2

[4] = system: Staphylococcus aureus 100 (MSSA); test: MIC by broth microdilution, SA 100; details: read-out: MIC SA 100
Text: as §1, §2

[5] = system: Streptococcus pneumoniae 1195 (penicillin sensitive); test: MIC by broth microdilution, SPNE 1195; details: read-out: MIC SPNE 1195
Text: as §1, §2

[6] = system: Staphylococcus aureus 757 (MRSA); test: MIC by broth microdilution, SA 757; details: read-out: MIC SA 757
Text: as §1, §2

[7] = system: Staphylococcus epidermidis 831 (MRSE); test: MIC by broth microdilution, SE 831; details: read-out: MIC SE 831
Text: as §1, §2

[8] = system: Enterococcus faecalis 848 (VRE); test: MIC by broth microdilution, EFC 848; details: read-out: MIC EFC 848
Text: as §1, §2

[9] = system: Staphylococcus epidermidis 835 (MSSE); test: MIC by broth microdilution, SE 835; details: read-out: MIC SE 835
Text: as §1, §2

[10] = system: Enterococcus faecium 750 (vancomycin sensitive); test: MIC by broth microdilution, EFCM 750; details: read-out: MIC EFCM 750
Text: as §1, §2

[11] = system: Enterococcus faecium 752 (VRE); test: MIC by broth microdilution, EFCM 752; details: read-out: MIC EFCM 752
Text: as §1, §2

SMILES: CN[C@H](CC(C)C)C(=O)N[C@H]1C(=O)N[C@@H](CC(N)=O)C(=O)N[C@H]2C(=O)N[C@H]3C(=O)N[C@H](C(=O)N[C@H](C(=O)O)c4cc(O)cc(O)c4-c4cc3ccc4O)[C@H](O)c3ccc(c(Cl)c3)Oc3cc2cc(c3O[C@@H]2O[C@H](CO)[C@@H](O)[C@H](O)[C@H]2O[C@H]2C[C@](C)(N)[C@H](O)[C@H](C)O2)Oc2ccc(cc2Cl)[C@H]1O [Vancomycin, vancomycin]
MIC ([1]; Staphylococcus aureus, VISA): 8 mg/L (≈ 5.52 µM)
MIC ([2]; Streptococcus pyogenes): 0.5 mg/L (≈ 0.345 µM)
MIC ([3]; Enterococcus faecalis): 2 mg/L (≈ 1.38 µM)
MIC ([4]; Staphylococcus aureus, MSSA): 1 mg/L (≈ 0.69 µM)
MIC ([5]; Streptococcus pneumoniae): 0.25 mg/L (≈ 0.173 µM)
MIC ([6]; Staphylococcus aureus, MRSA): 1 mg/L (≈ 0.69 µM)
MIC ([7]; Staphylococcus epidermidis, MRSE): 2 mg/L (≈ 1.38 µM)
MIC ([8]; Enterococcus faecalis, VRE): > 64 mg/L
MIC ([9]; Staphylococcus epidermidis): 2 mg/L (≈ 1.38 µM)
MIC ([10]; Enterococcus faecium): 1 mg/L (≈ 0.69 µM)
MIC ([11]; Enterococcus faecium, VRE): > 64 mg/L

MIC ([1]; Staphylococcus aureus 2012 (VISA), clinical isolate, Mueller-Hinton broth): 2 mg/L (≈ 1.4 µM)
MIC ([2]; Streptococcus pyogenes 712 (penicillin sensitive), clinical isolate, Mueller-Hinton broth): 0.25 mg/L (≈ 0.175 µM)
MIC ([3]; Enterococcus faecalis 101 (vancomycin sensitive), clinical isolate, Mueller-Hinton broth): 2 mg/L (≈ 1.4 µM)
MIC ([4]; Staphylococcus aureus 100 (MSSA), clinical isolate, Mueller-Hinton broth): 2 mg/L (≈ 1.4 µM)
MIC ([5]; Streptococcus pneumoniae 1195 (penicillin sensitive), clinical isolate, Mueller-Hinton broth): 0.5 mg/L (≈ 0.349 µM)
MIC ([6]; Staphylococcus aureus 757 (MRSA), clinical isolate, Mueller-Hinton broth): 2 mg/L (≈ 1.4 µM)
MIC ([7]; Staphylococcus epidermidis 831 (MRSE), clinical isolate, Mueller-Hinton broth): 1 mg/L (≈ 0.698 µM)
MIC ([8]; Enterococcus faecalis 848 (VRE), clinical isolate, Mueller-Hinton broth): 2 mg/L (≈ 1.4 µM)
MIC ([9]; Staphylococcus epidermidis 835 (MSSE), clinical isolate, Mueller-Hinton broth): 2 mg/L (≈ 1.4 µM)
MIC ([10]; Enterococcus faecium 750 (vancomycin sensitive), clinical isolate, Mueller-Hinton broth): 1 mg/L (≈ 0.698 µM)
MIC ([11]; Enterococcus faecium 752 (VRE), clinical isolate, Mueller-Hinton broth): 2 mg/L (≈ 1.4 µM)
SMILES: CCCCCCCCNC(=O)NC(=O)C[C@@H]1NC(=O)[C@H](NC(=O)[C@@H](CC(C)C)NC)[C@H](O)c2ccc(c(Cl)c2)Oc2cc3cc(c2O)Oc2ccc(cc2Cl)[C@@H](O)[C@H]2NC(=O)[C@H](NC(=O)[C@@H]3NC1=O)c1ccc(O)c(c1)-c1c(O)cc(O)cc1[C@@H](C(=O)NC1C3CC4CC(C3)CC1C4)NC2=O (stereo partly shown) [Compound 23]
